{"source": "patent US20260076935A1", "about": "“PREVENTION AND TREATMENT OF CONDITIONS USING ETHYL PYRUVATE” (The Trustees of Columbia University in the City of New York, priority 2023, published 2026)", "key": {"[1]": {"test_system": "early onset Lmx1b developmental glaucoma model", "experiment": "Glaucomatous optic nerve damage (neurodegeneration) in Lmx1b glaucoma mice", "type": "in vivo", "conditions": "FIG. 8"}, "[2]": {"test_system": "early onset Lmx1b developmental glaucoma model", "experiment": "Ocular developmental abnormalities (iridocorneal adhesions, anterior chamber depth) in Lmx1b glaucoma mice", "type": "in vivo", "excerpt": "As shown in FIGS. 4-6, in addition to preventing or treating high IOP, treatment of mice harboring an early onset Lmx1b developmental glaucoma model with ethyl pyruvate, alone or in combination with a metabolite boosting agent, unexpectedly rescued ocular developmental abnormalities. […] Ethyl pyruvate's ability to treat or prevent IOP elevation ocular developmental abnormalities was surprising at least because such effects have not been observed with sodium pyruvate treatments."}, "[3]": {"experiment": "Long-term dosing of mice, adverse effects", "type": "in vivo", "conditions": "mice dosed for at least up to nine months", "procedure": "Ethyl pyruvate was sourced from Sigma-Aldrich. […] See, e.g., Clinical Trial Identifier NCT00107666 (human cardiac trial, dosing ethyl pyruvate at 7.5 g (90 mg/kg) intravenously, every six hours for two days); Xiujing Sun et al., Ethyl Pyruvate Supplemented in Drinking Water Ameliorates Experimental Nonalcoholic Steatohepatitis, 137 Biomedical Pharmacotherapy 111392 (2021); Leilei Mao et al., Ethyl Pyruvate Improves White Matter Remodeling in Rats After Traumatic Brain Injury, 27 CNS Neuroscience & Therapeutics 113 (2021); C. C. Jacobs et al, Ethyl Pyruvate Diminishes the Inflammatory Response to Lipopolysaccharide Infusion in Horses, 45 Equine Veterinary J. 333 (2013). […] Furthermore, ethyl pyruvate is an FDA-approved food additive and flavoring agent."}, "[4]": {"test_system": "early-onset Lmx1b developmental glaucoma model", "experiment": "Intraocular pressure (IOP) in mice with early-onset Lmx1b developmental glaucoma model", "type": "in vivo", "excerpt": "Ethyl pyruvate's ability to treat or prevent IOP elevation ocular developmental abnormalities was surprising at least because such effects have not been observed with sodium pyruvate treatments."}, "[5]": {"conditions": "multiple mammalian species, including humans, mice, rats, and horses; cited from earlier work"}, "[6]": {"test_system": "age-onset mouse glaucoma models", "experiment": "IOP in age-onset mouse glaucoma models", "type": "in vivo", "procedure": "In some embodiments, one or more of these factors may lead to glaucoma. In some embodiments, the mouse model is a Lmx1b mouse model. This is unexpected at least because sodium pyruvate had no effect on IOP in age-onset mouse glaucoma models, or in the early-onset Lmx1b developmental glaucoma model. For example, treatment of Lmx1b mice with about 500 mg/kg/day of sodium pyruvate had no effect on IOP at 2, 3, and 4-months post-treatment. This is also unexpected at least because calcium pyruvate had no effect on IOP in humans in prior clinical studies."}, "[7]": {"conditions": "prior clinical studies; cited from earlier work"}, "[8]": {"conditions": "about 500 mg/kg/day, 2, 3, and 4-months post-treatment, Lmx1b mice"}}, "data": [{"molecule": "CCOC(=O)C(C)=O", "note": "[ethyl pyruvate]", "values": [{"measurement": "glaucomatous optic nerve damage (neurodegeneration)", "setting": "[1]; ethyl pyruvate 2000 mg/kg/day, mice aged to six months", "value": "lessening of glaucomatous optic nerve damage"}, {"measurement": "anterior chamber deepening", "setting": "[2]; FIGS. 5-6", "value": "significant effect in preventing or reducing anterior chamber deepening"}, {"measurement": "incidence and severity of iridocorneal adhesions", "setting": "[2]; ethyl pyruvate 2000 mg/kg/day, FIG. 4", "value": "less incidence and severity"}, {"measurement": "adverse effects", "setting": "[3]", "value": "without adverse effects"}, {"measurement": "IOP", "setting": "[4]; ethyl pyruvate 500 mg/kg/day, out to two months of age, FIG. 1", "value": "lessening of IOP"}, {"measurement": "IOP", "setting": "[4]; ethyl pyruvate 2000 mg/kg/day, FIG. 2", "value": "lessening of IOP"}, {"measurement": "safety and tolerability", "setting": "[5]", "value": "safe and well-tolerated"}]}, {"molecule": "NC(=O)c1cccnc1", "note": "[nicotinamide]", "values": [{"measurement": "glaucomatous optic nerve damage", "setting": "[1]; nicotinamide 550 mg/kg/day", "value": "protective from glaucomatous optic nerve damage"}]}, {"molecule": "CC(=O)C(=O)[O-].[Na+]", "note": "[sodium pyruvate]", "values": [{"measurement": "severity of anterior eye developmental abnormalities", "setting": "[2]; [8]", "value": "no effect"}, {"measurement": "severity of anterior eye developmental abnormalities", "setting": "[2]; sodium pyruvate 500 mg/kg/day", "value": "no change"}, {"measurement": "IOP", "setting": "[4]; [8]", "value": "no effect"}, {"measurement": "IOP elevation", "setting": "[4]; sodium pyruvate 500 mg/kg/day, after two months, FIG. 7", "value": "no effect"}, {"measurement": "IOP compared to untreated", "setting": "[4]; sodium pyruvate 500 mg/kg/day, at three and four months", "value": "no changes were observed"}, {"measurement": "IOP", "setting": "[6]", "value": "no effect"}]}, {"molecule": "calcium pyruvate", "values": [{"measurement": "IOP in humans", "setting": "[7]", "value": "no effect"}]}]}
